Laboratory results as given in PMC7037548, “Microbial Transformation of Prenylquercetins by Mucor hiemalis” (Molecules, 2020).
Converted amounts (≈) assume the structure as drawn.

assay: Water solubility test; assay type: physicochemical; settings: not given
Description: The solubility of prenylquercetins and their glucosides were determined based on the previously reported method with some modifications. Briefly, each compound (4 mg) was dissolved in 1 mL of distilled water at room temperature followed by sonication for 10 min and centrifugation at 3600 rpm for 5 min at room temperature. Then the concentrations of the compounds in the supernatant were measured based on their peak areas utilizing calibration curves determined by the HPLC of authentic samples.

Row | SMILES | Water solubility, comparison in words
1 | CC(C)=CCc1cc(O[C@@H]2O[C@H](CO)[C@@H](O)[C@H](O)[C@H]2O)c(O)cc1-c1oc2c(CC=C(C)C)c(O[C@@H]3O[C@H](CO)[C@@H](O)[C@H](O)[C@H]3O)cc(O)c2c(=O)c1O [Compound 8, 8,6′-Diprenylquercetin 7,4′-O-β-D-diglucopyranoside] | higher solubility than metabolite 9

same assay, conditions: distilled water, room temperature, 4 mg in 1 mL, sonication 10 min, centrifugation, supernatant by HPLC

Row | SMILES | Solubility (water solubility) [µg/mL]
2 | O=c1c(O)c(-c2ccc(O)c(O)c2)oc2cc(O)cc(O)c12 [Quercetin] | 36 (≈ 119 µM)

same assay, conditions: water, thermodynamic from solid

Row | SMILES | solubility at 10 min [µg/mL]
3 | CC(C)=CCc1c(O[C@@H]2O[C@H](CO)[C@@H](O)[C@H](O)[C@H]2O)cc(O)c2c(=O)c(O)c(-c3ccc(O)c(O)c3)oc12 [Compound 4, 8-Prenylquercetin 7-O-β-D-glucopyranoside] | 501 (≈ 941 µM)
4 | CC(C)=CCc1c(O)cc(O)c2c(=O)c(O)c(-c3ccc(O)c(O)c3)oc12 [Compound 1, 8-prenylquercetin] | 13 (≈ 35.1 µM)
5 | CC(C)=CCc1cc(O[C@@H]2O[C@H](CO)[C@@H](O)[C@H](O)[C@H]2O)c(O)cc1-c1oc2cc(O)cc(O)c2c(=O)c1O [Compound 7, 6′-Prenylquercetin 4′-O-β-D-glucopyranoside] | 3640 (≈ 6830 µM)
6 | CC(C)=CCc1cc(O)c(O)cc1-c1oc2cc(O)cc(O)c2c(=O)c1O [Compound 2, 6′-prenylquercetin] | 63 (≈ 170 µM)
7 | CC(C)=CCc1cc(O)c(O)cc1-c1oc2cc(O[C@@H]3O[C@H](CO)[C@@H](O)[C@H](O)[C@H]3O)cc(O)c2c(=O)c1O [Compound 6, 6′-Prenylquercetin 7-O-β-D-glucopyranoside] | 1980 (≈ 3710 µM)
8 | CC(C)=CCc1c(O)cc(O)c2c(=O)c(O[C@@H]3O[C@H](CO)[C@@H](O)[C@H](O)[C@H]3O)c(-c3ccc(O)c(O)c3)oc12 [Compound 5, 8-Prenylquercetin 3-O-β-D-glucopyranoside] | 385 (≈ 723 µM)
9 | CC(C)=CCc1cc(O)c(O)cc1-c1oc2c(CC=C(C)C)c(O)cc(O)c2c(=O)c1O [Compound 3, 8,6′-diprenylquercetin] | 20 (≈ 45.6 µM)
10 | CC(C)=CCc1cc(O)c(O)cc1-c1oc2c(CC=C(C)C)c(O[C@@H]3O[C@H](CO)[C@@H](O)[C@H](O)[C@H]3O)cc(O)c2c(=O)c1O [Compound 9, 8,6′-Diprenylquercetin 7-O-β-D-glucopyranoside] | 613 (≈ 1020 µM)
11 | CC(C)=CCc1cc(O[C@@H]2O[C@H](CO)[C@@H](O)[C@H](O)[C@H]2O)c(O)cc1-c1oc2c(CC=C(C)C)c(O[C@@H]3O[C@H](CO)[C@@H](O)[C@H](O)[C@H]3O)cc(O)c2c(=O)c1O [Compound 8, 8,6′-Diprenylquercetin 7,4′-O-β-D-diglucopyranoside] | > 4000
